Values after ≈ are worked out from the molar mass of the structure shown.
Assays:
Mucorales Mucor species = test: In vitro susceptibility (MIC), macrobroth dilution; type: cell-based; conditions: Mucor sp. 13-127, drug alone; for MIC50: lowest concentration causing 50% decrease in growth vs untreated control; for MIC100: lowest concentration without growth
A. fumigatus [1] = test: Alamar blue metabolic activity assay; type: cell-based, Aspergillus fumigatus; conditions: for interaction with BRI in inhibition of metabolic activity (Alamar blue): increasing concentrations + BRI 20 μM, 48 hours
A. fumigatus [2] = test: Protein kinase inhibitor (PKI) library screen with or without BRI; conditions: for growth, PKI (20 μM): PKI 20 μM alone; for growth, PKI (20 μM) + BRI (20 μM): PKI 20 μM together with BRI 20 μM; for activity at 20 µM: Aspergillus fumigatus, 48 h, read-out: growth, PKI (20 μM)
Procedure: A protein kinase inhibitors (PKI) library was also screened in combination with BRI. In total, 58 PKI were analyzed. Briefly, 100 μL of liquid MM containing 2.5×10^3 conidia/mL of the A. fumigatus wild-type strain plus 10% alamar blue was inoculated with increasing concentration of PKI (5-80 μM) in the presence (or not) of BRI (20μM) and incubated 48 hours at 37° C. without shaking. […] Plates were incubated for 48 hours at 37° C. without shaking. All experiments containing alamar blue were, after 48 hours incubation, read spectrophotometically by fluorescence and analyzed as previously described. Experiments were repeated at least three times.
To assess the mechanism of action of BRI, a collection of 58 protein kinase inhibitors (PKI, at a concentration of 20 μM; Table 4) was screened for A. fumigatus growth and corresponding metabolic activity alone or together with 20 μM BRI (Table 4).

Aspergillus fumigatus = test: In vitro susceptibility (MIC), macrobroth dilution; type: cell-based; conditions: A. fumigatus 10AF, drug alone; for MIC50: lowest concentration causing 50% decrease in growth vs untreated control; for MIC100: lowest concentration without growth

| Molecule | growth, PKI (20 μM) (A. fumigatus [2]) | growth, PKI (20 μM) + BRI (20 μM) (A. fumigatus [2]) | other results |
| --- | --- | --- | --- |
| C[C@@H]1[C@H](O)[C@@H](C)/C=C/C=C/C=C/C=C/C=C/C=C/C=C/[C@H](O[C@@H]2O[C@H](C)[C@@H](O)[C@H](N)[C@@H]2O)C[C@@H]2O[C@](O)(C[C@@H](O)C[C@@H](O)[C@H](O)CC[C@@H](O)C[C@@H](O)CC(=O)O[C@H]1C)C[C@H](O)[C@H]2C(=O)O [Amphotericin B (AMPB)] | – | – | MIC50 (Mucorales Mucor species): 0.25 µg/mL (≈ 0.271 µM); MIC100 (Mucorales Mucor species): 0.5 µg/mL (≈ 0.541 µM) |
| CCn1c(=O)c(-c2ccc(Cl)cc2Cl)cc2cnc(Nc3ccc(N4CCNCC4)c(F)c3)nc21 [FRAX486] | ++ (++: growth ≥80% compared to no treatment) | + (+: growth ≤60% compared to no treatment) | effect on BRI activity (metabolic activity, Alamar blue) (A. fumigatus [1]): potentiating the BRI activity |
| Nc1nc(=O)[nH]cc1F [Flucytosine (FLCY)] | – | – | MIC50 (Aspergillus fumigatus): >64 µg/mL; MIC100 (Aspergillus fumigatus): >64 µg/mL |
| NS(=O)(=O)c1ccc(N/N=C2\C(=O)Nc3ccc(C(=O)NCCc4c[nH]cn4)cc32)cc1 [GW300660X] | ++ (++: growth ≥80% compared to no treatment) | ++ (++: growth ≥80% compared to no treatment) | – |
| O=C1Nc2ccc(I)cc2C1=Cc1cc(Br)c(O)c(Br)c1 [GW305074X] | ++ (++: growth ≥80% compared to no treatment) | ++ (++: growth ≥80% compared to no treatment) | – |
| CC(C)COC(=O)c1ccc2c(c1)/C(=C/Nc1ccc(S(N)(=O)=O)cc1)C(=O)N2 [GW416981X] | ++ (++: growth ≥80% compared to no treatment) | ++ (++: growth ≥80% compared to no treatment) | – |
| Fc1ccc(-c2nn3ccccc3c2-c2ccncc2)cc1 [GW434756X] | ++ (++: growth ≥80% compared to no treatment) | ++ (++: growth ≥80% compared to no treatment) | – |
| O=C1NC(=O)C(c2cnc3ccccn23)=C1c1cn2c3c(cc(F)cc13)CN(C(=O)N1CCCCC1)CC2 [LY2090314] | – | ++ (++: growth ≥80% compared to no treatment) | activity at 20 µM (A. fumigatus [2]): > 80% |
| C[C@@]1(c2ncncc2F)NC(=O)c2cc(-c3cn[nH]c3)ccc21 [LY3177833] | ++ (++: growth ≥80% compared to no treatment) | ++ (++: growth ≥80% compared to no treatment) | – |
| Cc1nc(Nc2n[nH]c3c2CN(C(=O)N[C@H](CN(C)C)c2ccccc2)C3(C)C)c2sccc2n1 [PF + 3758309] | ++ (++: growth ≥80% compared to no treatment) | ++ (++: growth ≥80% compared to no treatment) | – |
| CCc1cncnc1N1CCN(Cc2nc3ccc(C(F)(F)F)cc3[nH]2)CC1 [PF + 4708671] | ++ (++: growth ≥80% compared to no treatment) | ++ (++: growth ≥80% compared to no treatment) | – |
| O=C1NCCc2[nH]c(-c3ccncc3)cc21 [PHA + 767491] | ++ (++: growth ≥80% compared to no treatment) | ++ (++: growth ≥80% compared to no treatment) | – |
| Nc1ncnc2c1c(-c1cnc3[nH]ccc3c1)nn2C1CCCC1 [PP121] | ++ (++: growth ≥80% compared to no treatment) | + (+: growth ≤60% compared to no treatment) | effect on BRI activity (metabolic activity, Alamar blue) (A. fumigatus [1]): potentiating the BRI activity |
| CC[C@@H]([C@H](C)O)n1ncn(-c2ccc(N3CCN(c4ccc(OC[C@@H]5CO[C@@](Cn6cncn6)(c6ccc(F)cc6F)C5)cc4)CC3)cc2)c1=O [Posaconazole (POSA)] | – | – | MIC50 (Mucorales Mucor species): 1 µg/mL (≈ 1.43 µM); MIC100 (Mucorales Mucor species): >16 µg/mL |
| Cn1cc(C2=C(c3ccc(Cl)cc3Cl)C(=O)NC2=O)c2ccccc21 [SB 216763] | – | ++ (++: growth ≥80% compared to no treatment) | activity at 20 µM (A. fumigatus [2]): > 80% |
| C[S+]([O-])c1ccc(-c2nc(-c3ccc(F)cc3)c(-c3ccncc3)[nH]2)cc1 (centres unmarked) [SB + 203580] | ++ (++: growth ≥80% compared to no treatment) | ++ (++: growth ≥80% compared to no treatment) | – |
| O=C(Nc1ccc2[nH]nc(-c3ccncc3)c2c1)[C@@H]1CCN(CC(=O)N2CCN(c3ccc(-c4ncccn4)cc3)CC2)C1 [SCH772984] | – | ++ (++: growth ≥80% compared to no treatment) | activity at 20 µM (A. fumigatus [2]): > 80% |
| CNC(=O)c1cc(Oc2ccc(NC(=O)Nc3ccc(Cl)c(C(F)(F)F)c3)cc2)ccn1 [Sorafenib] | – | ++ (++: growth ≥80% compared to no treatment) | activity at 20 µM (A. fumigatus [2]): > 80% |
| CCc1nc(-c2cccc(C)c2)c(-c2ccnc(NC(=O)c3ccccc3)c2)s1 [TAK + 715] | ++ (++: growth ≥80% compared to no treatment) | ++ (++: growth ≥80% compared to no treatment) | – |

| Molecule | growth, PKI (20 μM) (A. fumigatus [2]) | growth, PKI (20 μM) + BRI (20 μM) (A. fumigatus [2]) | other results |
| --- | --- | --- | --- |
| Cc1ccc(-c2csc3ncnc(SCCC(=O)O)c23)cc1 [TTP 22] | ++ (++: growth ≥80% compared to no treatment) | ++ (++: growth ≥80% compared to no treatment) | – |
| Nc1ccc(-c2ccc3ncc4ccc(=O)n(-c5cccc(C(F)(F)F)c5)c4c3c2)cn1 [Torin 2] | ++ (++: growth ≥80% compared to no treatment) | ++ (++: growth ≥80% compared to no treatment) | – |
| O=c1ncn2nc(Sc3ccc(F)cc3F)ccc2c1-c1c(Cl)cccc1Cl [VX + 745] | ++ (++: growth ≥80% compared to no treatment) | ++ (++: growth ≥80% compared to no treatment) | – |
| C[C@@H](c1ncncc1F)[C@](O)(Cn1cncn1)c1ccc(F)cc1F [Voriconazole (VOR)] | – | – | MIC50 (Aspergillus fumigatus): 0.125 µg/mL (≈ 0.358 µM); MIC100 (Aspergillus fumigatus): 1 µg/mL (≈ 2.86 µM) |
| O=c1[nH]c(C2CCCN2)nc2c1oc1ccc(Cl)cc12 (centres unmarked) [XL413] | ++ (++: growth ≥80% compared to no treatment) | ++ (++: growth ≥80% compared to no treatment) | – |
| CCOc1cc(N2CCC(O)CC2)ccc1Nc1ncc2c(n1)N(C)c1ccccc1C(=O)N2C [XMD8 + 92] | ++ (++: growth ≥80% compared to no treatment) | ++ (++: growth ≥80% compared to no treatment) | – |
| COc1ccc2c(c[n+](C)c3c4cc5c(cc4ccc23)OCO5)c1OC [chelerenthrine] | – | – | interaction with BRI in inhibition of metabolic activity (Alamar blue) (A. fumigatus [1]): synergize |
| CC1(N)CCN(c2cccnc2NC(=O)c2nc(-c3ncccc3C(F)(F)F)cnc2N)CC1 [darovasertib] | – | ++ (++: growth ≥80% compared to no treatment) | activity at 20 µM (A. fumigatus [2]): > 80% |
| Cn1cc(C2=C(c3cn(C4CCN(Cc5ccccn5)CC4)c4ccccc34)C(=O)NC2=O)c2ccccc21 [enzastaurin] | – | ++ (++: growth ≥80% compared to no treatment) | activity at 20 µM (A. fumigatus [2]): > 80% |
| CC(C)(C)Cn1c(N)nc2ccc(-c3[nH]c(C(C)(C)C)nc3-c3ccc(F)cc3)nc21 [ralimetinib] | – | ++ (++: growth ≥80% compared to no treatment) | activity at 20 µM (A. fumigatus [2]): > 80% |
| COc1cc(F)c(F)c(Nc2ccc(I)cc2F)c1NS(=O)(=O)C1(C[C@H](O)CO)CC1 [refametinib] | – | ++ (++: growth ≥80% compared to no treatment) | activity at 20 µM (A. fumigatus [2]): > 80% |
| Cn1cnc2c(F)c(Nc3ccc(Br)cc3Cl)c(C(=O)NOCCO)cc21 [selumetinib] | – | ++ (++: growth ≥80% compared to no treatment) | activity at 20 µM (A. fumigatus [2]): > 80% |
| CNC(=O)c1cccc(-c2ccc3c(N4CCOC[C@@H]4C)nc(N4CCOC[C@@H]4C)nc3n2)c1 [vistusertib] | – | ++ (++: growth ≥80% compared to no treatment) | activity at 20 µM (A. fumigatus [2]): > 80% |
| LY + 2584702 | ++ (++: growth ≥80% compared to no treatment) | ++ (++: growth ≥80% compared to no treatment) | – |
| MK + 8353 | ++ (++: growth ≥80% compared to no treatment) | ++ (++: growth ≥80% compared to no treatment) | – |
| PF + 670462 | ++ (++: growth ≥80% compared to no treatment) | ++ (++: growth ≥80% compared to no treatment) | – |
| SR + 3677 | ++ (++: growth ≥80% compared to no treatment) | ++ (++: growth ≥80% compared to no treatment) | – |
| calphostin C | – | – | interaction with BRI in inhibition of metabolic activity (Alamar blue) (A. fumigatus [1]): synergize |
